# According to patent publication US20230346943A1, “SPACER-MEDIATED CONTROL OF UNCAGING PHOTOCAGED MOLECULES” (The Regents of the University of California, priority 2020, published 2023):
# How the values were obtained:
# [1] = UV-vis absorption property; conditions: for λmax: UV-vis spectrum; for λmax / Molar absorptivity ε at λmax: 35% aq methanol
# Procedure: We observed the absorption properties of the coumarin (DEACM), a common photocage present in 1 and 2, as shown in their UV-vis spectra (FIG. 2A).
# Spectra for UV-vis Absorption Were Recorded With a Perkin Elmer Lamda 20 Spectrophotometer.
# [2] = Photolysis (photon uncaging) kinetics of photocaged thymidine monitored by UPLC; format: physicochemical; conditions: for Rate constant (first order) for the decay of photocaged thymidine (kdecay) / Quantum efficiency (Φ) of release for thymidine (dT) / Quantum efficiency (Φ) of release for thymidine-retaining byproduct(s): 35% (v/v) aq methanol; for Efficiency of thymidine release (max): maximal free thymidine released on photolysis; for Formation of thymidine-bearing byproduct dT^N-DEACM on photolysis: regardless of the light wavelength (365, 420, 455 nm)
# Procedure: Photolysis of 1 was performed in an aqueous medium (0.21 mM in 35% (v/v) aq methanol), and its uncaging kinetics was determined by monitoring exposed solutions using UV-vis spectroscopy and UPLC (FIGS. 3A-3D). UV-vis spectra acquired after photolysis at 420 nm (exposure time = 0-20 min) show absorption changes in an exposure time-dependent manner (FIGS. 5A-5F), but these are not applicable for the detection and quantitation of thymidine released. In contrast, UPLC traces acquired after photolysis (FIG. 3A) show the disappearance of 1 with the concomitant growth of free thymidine (dT) (tr = 3.1 min) along with coumarin photocage detached 5 (tr = 6.5 min). The area under curve (AUC) analysis of these peaks provided a decay curve for 1 (FIG. 3B). Its regression analysis allowed determining a rate constant for first-order decay (kdecay = 1.5 ×10^-3 sec^-1), and quantum efficiency for thymidine release (ΦdT = 0.015) (Table 1).
# We similarly evaluated the uncaging kinetics of 2 dT^O-Bn-DEACM (0.17 mM in 35% (v/v) aq methanol) by irradiation at 420 nm (FIGS. 3C-3D). Its photolysis led to smaller changes in UV-vis spectra with lack of a clear trend compared to 1 dT^O-DEACM (FIGS. 5A-5F). Overlaid UPLC traces show time-dependent, rapid uncaging of 2 with ~65% release of thymidine achieved after an initial exposure for 5 min. […] Regression analysis of its decay curve provided a decay constant (kdecay = 1.1×10^-3 sec^-1), which is slightly lower than that of 1 (Table 1). However, its lack of the byproduct formation makes a positive contribution to enhancing its quantum efficiency for thymidine release (ΦdT = 0.025) compared to 1 (ΦdT = 0.015). This clean uncaging kinetics offers evidence for greater advantages in thymidine uncaging by the extended spacer than the direct ether linkage.
# UPLC was performed for homogeneity analysis and compound characterization in a Waters Acquity System combined with a photodiode array (PDA) detector. The UPLC analysis involved running a sample in a C4 BEH column (100 × 2.1 mm, 300 Å) at a flow rate of 0.2 mL min^-1. The elution occurred in a linear gradient composed of two mobile solvents, water and acetonitrile, each containing TFA (0.1% v/v) (eluent A and B respectively). Its method consisted of an initial phase 1% B (0-1.4 min), a linear increased to 80% B (1.4-13.4 min), a decrease to 50% B (13.4-13.8 min), a decrease to 1% B (13.8-14.4 min) and finally an isocratic elution at 1% B (14.4-18 min). This method was also applied for the kinetic analysis of product release.
# Light Sources. Photolytic studies for thymidine release were performed with three light sources. These include: i) UV lamp (XX-15A, Spectroline®) for irradiation at long wavelength UV light (UVA) with a maximal intensity at 365 nm;^4 ii) LZC-420 lamp (Luzchem Research) for visible light at 420 nm; iii) LZC-LBL light emitting diode (LED) lamp (Luzchem Research) for visible (blue) light 445-465 nm. Photon flux density (qn,p = qp/NA, mol × s^-1) of each lamp was determined by ferrioxalate actinometry according to a standard protocol.^52, ^53 […]
# Uncaging Kinetics and Analysis. Typically, a solution of photocaged thymidine 1 or 2 (dT^caged: 0.05-0.1 mg/mL) in aq methanol (30-35% v/v) was prepared and exposed to the light at a distance of ~5 cm. After each exposure period, the solution was aliquoted out as a function of irradiation time (0-30 min), and each aliquot was analyzed by UPLC and UV-vis absorption spectrometry to determine the kinetics of thymidine release and byproduct formation. Certain aliquot was further analyzed by HPLC-MS mass spectrometry (ESI) to validate the identity of thymidine and released molecular species in the photolysed solution.
# Quantum efficiency (Φ) for the release of thymidine (dT) is defined in eq 1, and its value was calculated according to a standard method as noted in eq 2:^53 […]
# [3] = photon uncaging ability of the N-isomer; cited from earlier work
Compound,λmax [1],Molar absorptivity ε at 455 nm [1],Molar absorptivity ε at λmax [1],Rate constant (first order) for the decay of photocaged thymidine (kdecay) ([2]; irradiation 365 nm (UVA)),Quantum efficiency (Φ) of release for thymidine (dT) ([2]; irradiation 365 nm),Quantum efficiency (Φ) of release for thymidine-retaining byproduct(s) ([2]; irradiation 365 nm),Rate constant (first order) for the decay of photocaged thymidine (kdecay) ([2]; irradiation 420 nm (visible)),Quantum efficiency (Φ) of release for thymidine (dT) ([2]; irradiation 420 nm),Quantum efficiency (Φ) of release for thymidine-retaining byproduct(s) ([2]; irradiation 420 nm),Rate constant (first order) for the decay of photocaged thymidine (kdecay) ([2]; irradiation 455 nm (visible)),Quantum efficiency (Φ) of release for thymidine (dT) ([2]; irradiation 455 nm),Quantum efficiency (Φ) of release for thymidine-retaining byproduct(s) ([2]; irradiation 455 nm),Efficiency of thymidine release (max) [2],Formation of thymidine-bearing byproduct dT^N-DEACM on photolysis [2],Decay on irradiation relative to 1 dT^O-DEACM [3],Undesired species (tr = 7.8 min) in UPLC traces after photolysis ([2]; irradiation 420 nm),"Release of thymidine after initial exposure ([2]; irradiation 420 nm, exposure 5 min)","Faster decay than 1 at 455 nm ([2]; irradiation 455 nm, relative to 1)",Efficiency of thymidine release (max) ([2]; listed as new photocaged thymidine),"Photolysis rate at 455 nm lower than at 420 nm ([2]; ratio of decay rates, 455 nm vs 420 nm)"
"CCN(CC)c1ccc2c(COc3nc(=O)n([C@H]4C[C@H](O)[C@@H](CO)O4)cc3C)cc(=O)oc2c1 [Compound 1, dT^O-DEACM, reference compound]",393 nm,"1,115 M^-1cm^-1","10,209 M^-1cm^-1",0.00089 s⁻¹,0.006,0.005,0.0015 s⁻¹,0.015,0.017,0.00012 s⁻¹,0.017,0.023,58%,induces a thymidine-bearing byproduct,–,–,–,–,–,–
CCN(CC)c1ccc2c(Cn3c(=O)c(C)cn(C4CC(O)C(CO)O4)c3=O)cc(=O)oc2c1 (stereo not shown) [dT^N-DEACM],–,–,–,–,–,–,–,–,–,–,–,–,–,–,approximately two orders of magnitude more slowly,–,–,–,–,–
dT^O-Bn-DEACM [Compound 2],390 nm,"1,653 M^-1cm^-1","11,603 M^-1cm^-1",0.0011 s⁻¹,0.014,–,0.0011 s⁻¹,0.025,–,0.00058 s⁻¹,0.081,–,94%,lack of the byproduct formed,–,have not observed the undesired species,~ 65%,~ 5 Fold,~ 94%,approximately 2 Fold
